Test results: paper PMC8662641, “Site-Specific Labeling of Endogenous Proteins Using CoLDR Chemistry” (Journal of the American Chemical Society, 2021)

Columns and labels:
BTK-1h = biological target: T1, BTK-1h (Homo sapiens, UniProt Q06187); experiment: High-throughput screening with 1h-labeled BTK; type: binding; conditions: Dataset S2A; 200 μM compound, BTK-1h, 32 °C, 10 min
T1 construct: The BTK kinase domain was diluted to 2 μM in the buffer, and 2 μM 1h was added; made in house
Protocol: The collection was composed of BTK binding compounds obtained in our previous luminescence screen[37] (Data set S2). […] The resulting BTK-1h (50 μL) was added to the inhibitors.

BTK = BTK (Homo sapiens, UniProt Q06187); design: BTK kinase domain was expressed and purified as previously reported; made in house; method as in Reddi et al., J. Am. Chem. Soc. 2021, 143 (13), 4979–4992; conditions: ref Reddi et al., J. Am. Chem. Soc. 2021, 143 (13), 4979–4992; cited from earlier work
Chain of BTK (Q06187 402-655 limits assumed): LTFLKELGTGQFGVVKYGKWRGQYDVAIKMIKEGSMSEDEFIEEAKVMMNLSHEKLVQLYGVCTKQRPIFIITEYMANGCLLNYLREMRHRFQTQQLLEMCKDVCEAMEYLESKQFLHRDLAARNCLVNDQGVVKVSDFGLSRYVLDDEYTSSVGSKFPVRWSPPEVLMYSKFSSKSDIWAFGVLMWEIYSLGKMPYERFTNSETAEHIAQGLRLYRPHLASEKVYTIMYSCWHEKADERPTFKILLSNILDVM

T1 sequence (Q06187 402-655): as the sequence (Q06187 402-655 limits assumed) above

For Cc1cc(Nc2cc(CN3CCOCC3)c3nc(C)c(Cc4ccc(Cl)cc4F)n3n2)n[nH]1 [PCM-0095222-002], the “FI (650)/FI (620)” value (BTK-1h) is listed as 1.03, the “FI (BTK-1h)/FI (BTK-1h+Inhibitor) at 620 nm” value (BTK-1h) is listed as 1.045 and the “BTK Inhibition reported in luminescence assay*” value (from here on “BTK Inhibition reported”) (BTK) is listed as 56.6.
For C=CC(=O)Nc1ccc2ncnc(Nc3ccc(OCc4cccc(F)c4)c(Cl)c3)c2c1.Cc1ccc(S(=O)(=O)O)cc1 [PCM-0095229-002], the “FI (650)/FI (620)” value (BTK-1h) is listed as 0.9282, the “FI (BTK-1h)/FI (BTK-1h+Inhibitor) at 620 nm” value (BTK-1h) is listed as 1.039 and the “BTK Inhibition reported” value (BTK) is listed as 109.7.
In the case of Cc1cc(Nc2nc(N[C@@H](C)c3ccc(F)cc3)c(C#N)cc2F)n[nH]1 [PCM-0095250-002], the “FI (650)/FI (620)” value (BTK-1h) is given as 1.215, the “FI (BTK-1h)/FI (BTK-1h+Inhibitor) at 620 nm” value (BTK-1h) is given as 1.03 and the “BTK Inhibition reported” value (BTK) is given as 99.3.
In the case of O=C(O)C1(Cc2cccc(Nc3nccs3)n2)CCC(Oc2cccc(Cl)c2F)CC1 (stereo not drawn) [PCM-0095334-002], the “FI (650)/FI (620)” value (BTK-1h) is listed as 1.3013, the “FI (BTK-1h)/FI (BTK-1h+Inhibitor) at 620 nm” value (BTK-1h) is listed as 1.347 and the “BTK Inhibition reported” value (BTK) is listed as 102.1.
In the case of CN(c1ncccc1CNc1nc(Nc2ccc3c(c2)CC(=O)N3)ncc1C(F)(F)F)S(C)(=O)=O.O=S(=O)(O)c1ccccc1 [PCM-0095340-005], the “FI (650)/FI (620)” value (BTK-1h) is given as 1.135, the “FI (BTK-1h)/FI (BTK-1h+Inhibitor) at 620 nm” value (BTK-1h) is given as 1.028 and the “BTK Inhibition reported” value (BTK) is given as 84.8.
In the case of CC(C)(O)CC(=O)NCCn1ccc2ncnc(Nc3ccc(Oc4cccc(C(F)(F)F)c4)c(Cl)c3)c21 [PCM-0095364-002], the “FI (650)/FI (620)” value (BTK-1h) is given as 0.8854, the “FI (BTK-1h)/FI (BTK-1h+Inhibitor) at 620 nm” value (BTK-1h) is given as 1.06 and the “BTK Inhibition reported” value (BTK) is given as 73.8.
For COc1cc(NC(=O)c2ccc(-c3ccc(Cl)cc3)o2)cc(OC)c1 [PCM-0095366-002], the “FI (650)/FI (620)” value (BTK-1h) is listed as 1.0001, the “FI (BTK-1h)/FI (BTK-1h+Inhibitor) at 620 nm” value (BTK-1h) is listed as 1.041 and the “BTK Inhibition reported” value (BTK) is listed as 56.8.
In the case of Cn1cc(-c2[nH]c3cc(NC(=O)[C@H](N)C4CCCCC4)cc4c3c2C=NNC4=O)cn1 [PCM-0095372-002], the “FI (650)/FI (620)” value (BTK-1h) is given as 2.04, the “FI (BTK-1h)/FI (BTK-1h+Inhibitor) at 620 nm” value (BTK-1h) is given as 1.441 and the “BTK Inhibition reported” value (BTK) is given as 111.
For Cc1ccccc1C(=O)Nc1ccc(C(=O)N2CCCC(N(C)C)c3ccccc32)cc1 (stereo not drawn) [PCM-0095424-002], the “FI (650)/FI (620)” value (BTK-1h) is given as 1.034, the “FI (BTK-1h)/FI (BTK-1h+Inhibitor) at 620 nm” value (BTK-1h) is given as 1.021 and the “BTK Inhibition reported” value (BTK) is given as 70.
For CNC(=O)c1cc(Oc2ccc(NC(=O)Nc3cc(C(C)(C)C)nn3-c3ccc4ncccc4c3)c(F)c2)ccn1 [PCM-0095514-002], the “FI (650)/FI (620)” value (BTK-1h) is given as 1.156, the “FI (BTK-1h)/FI (BTK-1h+Inhibitor) at 620 nm” value (BTK-1h) is given as 1.374 and the “BTK Inhibition reported” value (BTK) is given as 98.6.
For CC1=C(C(=O)OC(C)C)C(c2cccc([N+](=O)[O-])c2)C(C(=O)OC2CN(C(c3ccccc3)c3ccccc3)C2)=C(N)N1 (stereo not drawn) [PCM-0095544-002], the “FI (650)/FI (620)” value (BTK-1h) is given as 1.1262, the “FI (BTK-1h)/FI (BTK-1h+Inhibitor) at 620 nm” value (BTK-1h) is given as 1.0184 and the “BTK Inhibition reported” value (BTK) is given as 70.
For O=C(/C=C/c1ccc(O)c(O)c1)c1ccc(O)cc1O [PCM-0095622-002], the “FI (650)/FI (620)” value (BTK-1h) is listed as 1.0597, the “FI (BTK-1h)/FI (BTK-1h+Inhibitor) at 620 nm” value (BTK-1h) is listed as 1.03 and the “BTK Inhibition reported” value (BTK) is listed as 55.2.
For Oc1ccc(Nc2nc(-c3ccc(Cl)cc3)cs2)cc1 [PCM-0095692-002], the “FI (650)/FI (620)” value (BTK-1h) is given as 1.023, the “FI (BTK-1h)/FI (BTK-1h+Inhibitor) at 620 nm” value (BTK-1h) is given as 1.009 and the “BTK Inhibition reported” value (BTK) is given as 84.8.
In the case of CNCc1ccc(C)c(NC(=O)c2ccc(Nc3nc(-c4ccccc4)c4ccccc4n3)cc2)c1 [PCM-0095748-002], the “FI (650)/FI (620)” value (BTK-1h) is listed as 1.264, the “FI (BTK-1h)/FI (BTK-1h+Inhibitor) at 620 nm” value (BTK-1h) is listed as 1.088 and the “BTK Inhibition reported” value (BTK) is listed as 79.5.
In the case of O=C(O)c1ccc(C=C2SC(=S)N(c3cccc(C(F)(F)F)c3)C2=O)cc1 [PCM-0095759-002], the “FI (650)/FI (620)” value (BTK-1h) is listed as 1.083, the “FI (BTK-1h)/FI (BTK-1h+Inhibitor) at 620 nm” value (BTK-1h) is listed as 1.262 and the “BTK Inhibition reported” value (BTK) is listed as 54.1.
For CN(CC(=O)N(Cc1ccc(C2CCCCC2)cc1)c1ccc(C(=O)O)cc1)S(=O)(=O)c1c(F)c(F)c(F)c(F)c1F [PCM-0095763-002], the “FI (650)/FI (620)” value (BTK-1h) is given as 1.026, the “FI (BTK-1h)/FI (BTK-1h+Inhibitor) at 620 nm” value (BTK-1h) is given as 1.04 and the “BTK Inhibition reported” value (BTK) is given as 68.7.
For O=C(O)c1ccc(N2C(=O)/C(=C/c3ccc(-c4ccc([N+](=O)[O-])cc4)o3)C=C2c2ccccc2)cc1 [PCM-0095764-003], the “FI (650)/FI (620)” value (BTK-1h) is listed as 1.233, the “FI (BTK-1h)/FI (BTK-1h+Inhibitor) at 620 nm” value (BTK-1h) is listed as 0.999 and the “BTK Inhibition reported” value (BTK) is listed as 98.1.
